Measurements published in patent US10450610B2, “Single nucleotide polymorphisms (SNP) and association with resistance to immune tolerance induction” (University of Tennessee Research Foundation, priority 2008, dated 2019).
Several values for one entry are separate records, joined by “and”; a condition that tells them apart may be missing. Equal entries are not always repeated. Entries after “also recorded” stand apart in the source; their conditions may differ.

Assays:
DBA/1 mice [1] = test: Persistent NSAID effect on oral tolerance; arthritic joints after late CII immunization; format: in vivo; details: FIG. 10
Experimental: To determine whether chronic feeding of piroxicam with CII would have a persistent effect on tolerance induction to CII in DBA/1 mice, three groups of 10-11 DBA/1 mice were fed 8 doses of CII over two weeks (as above) on two occasions separated by 6 months: piroxicam (2.4 μg/gm) a.m. and Placebo (0.1M HAc, 100 μl) p.m.; Placebo (saline) a.m. and native bovine CII (10 μg) p.m; or piroxicam (2.4 μg/gm) a.m. and native bovine CII (10 μg) p.m. Three months after the second 8 dose feeding, each mouse was immunized (intradermally at base of tail) with 100 μg native bovine CII emulsified in complete Freund's adjuvant. Mice were placed in coded cages and scored twice weekly by a blinded observer for numbers of arthritic joints.

spleen cells = test: IFNγ production by spleen cells of fed, CII-immunized mice cultured with α1(II) CB peptide mixture (ELISA); format: in vivo; details: FIG. 8
Text: To assess the effect of oral feeding of piroxicam to another group of mice fed Placebo or CII on spleen cell IFNγ production in a manner similar to the experiment in FIG. 7, four groups of mice (4 mice per group) were gavaged 8 days over 2 weeks with the following: Piroxicam a.m.—CII p.m.; Piroxicam a.m.—HAc p.m.; Saline a.m.—CII p.m.; or Saline a.m.—HAc p.m. After 1 week rest, all mice were immunized at the base of the tail with a CII—complete Freund's adjuvant emulsion. After 14 days, mice ere sacrificed, and spleen cells were isolated and set up in culture with PBS or α1(II)CB peptide mixture. After 72 h culture, harvested supernatants ere analyzed for IFNγ levels by ELISA.

[2] = system: mesenteric lymph node cells; test: Mesenteric lymph node cell proliferation with α1(II) CB peptide mixture; format: in vivo, mice; details: FIG. 12
Peyer's patch cells = test: Peyer's patch cell / normal spleen cell co-culture proliferation with α1(II) CB peptide mixture (3H thymidine); format: in vivo; details: cells from mice fed piroxicam plus CII vs CII alone or piroxicam alone; p<0.03; FIG. 11
Experimental: To assess the status of the GALT in these three groups of mice, Peyer's patch cells were isolated from each animal, and set up (2.5×10^5/ml) in quadruplicate in co-culture with normal DBA/1 spleen cells (2×10^6/ml) with addition of recombinant murine IL2 (10 U/ml). PBS (as a control) or 50 μg/ml bovine α1(II) CB peptide mixture were added to quadruplicate wells in 96 round bottom well plates. After 3 days, cultures were pulsed with ^3H thymidine and harvested onto paper filters 24 h later. The “stimulation index” was calculated for each mouse by dividing the cpm of α1(II) CB peptide mixture culture by the cpm of the PBS control culture for each mouse. […] Thus, the marked increase in the stimulation index of Peyer's patch cells with DBA/1 spleen cells in the presence of α1(II) CB peptide mixture is quite exceptional and unexpected.

DBA/1 mice [3] = test: NSAID inhibition of oral tolerance induction to collagen II; arthritic joints scored; format: in vivo
Experimental: To determine whether tolerance induction to orally fed bovine CII in DBA/1 mice would be abrogated by orally fed NSAID, 3 groups of 20-22 DBA/1 mice were fed (by gavage) eight doses (Monday, Tuesday, Thursday, and Friday for 2 weeks) of the following: Placebo (saline) in the a.m. and Placebo (0.1 M HAc) in the p.m.; Placebo (saline) in the a.m. and 10 μg native bovine CII in the p.m.; or piroxicam (2.4 μg/gm) in the a.m. and native bovine CII (10 μg) in the p.m. After 1 week, all mice were immunized (intradermally at the base of tail) with 100 μg of bovine CII emulsified in complete Freund's adjuvant. Animals were placed in coded cages and were scored by a blinded observer twice weekly for the number of arthritic joints (joints swollen, red, and/or deformed).

[4] = Phase II oral CI tolerance clinical trial in SSc; change in MRSS; format: in vivo, human; details: CI treated vs placebo treated completers, Late Phase ROT1AA patients deleted; Wilcoxon Rank Sum test; FIG. 16
Text: In the Phase II oral CI tolerance clinical trial at 12 months, 79 SSc patients were genotyped of the 168 enrolled in the clinical trial. Seven of the 23 ROT1AA genotype were in the Late Phase category, and deleted from the results.

PBMC = test: Oral type I collagen in SSc patients; change in IL-10 production by antigen-stimulated PBMC; format: in vivo, human
Experimental: Samples from 26 patients from a trial of oral type I collagen (CI) in patients with diffuse systemic sclerosis (SSc) who took 500 μg/day CI for 12 months were collected. […] No patients were on DMARDs, biologies, NSAIDS or prednisone.
Patients with ROT1 AA, GG or GA genotype had IL-10 measured of IL-PBMC cultures stimulated by α1(I) CB mixture, α2(I) CB mixture, or native CI after receiving oral CI for 12 months minus the values of IL-10 in the supernatants of PBMC cultures stimulated with the same antigens at baseline before oral CI was administered to the SSc patients.

[5] = group mean, Genotype AA (N = 6)
[6] = individual SSc patients, Genotype AA, after 12 months oral CI 500 μg/day minus baseline
[7] = individual SSc patients, Genotype GG or GA, after 12 months oral CI 500 μg/day minus baseline
[8] = patients with ROT1 AA genotype, oral bovine CI 500 ug/day for 12 months

## CN1C(C(=O)Nc2ccccn2)=C(O)c2ccccc2S1(=O)=O [piroxicam]
DBA/1 mice [1]
  oral tolerance: persistent abrogation of oral tolerance
DBA/1 mice [1]; fed piroxicam plus CII 9 and 3 months before vs Placebo plus CII, p<0.04 at 8 weeks
  arthritic joints at week 7 and 8 after immunization: significantly more arthritic joints
Spleen cells; fed with Placebo (alone)
  IFNγ production by spleen cells cultured with α1(II) CB peptide mixture: reduced production of IFNγ
Spleen cells; piroxicam orally fed to mice being fed oral CII
  IFNγ production by spleen cells stimulated with α1(II) CB peptide mixture: dramatic increase
[2]; mice fed either CII or piroxicam alone
  proliferation in response to α1(II) CB peptide mixture: did not proliferate
[2]; mice fed piroxicam plus CII
  stimulation by α1(II) CB peptide mixture: marked stimulation
Peyer's patch cells
  stimulation by α1(II) CB peptide mixture (stimulation index): marked stimulation
DBA/1 mice [3]; DBA/1 mice fed CII, FIG. 7 / similar studies (data not shown)
  oral tolerance (OT) induction: abrogation of certain forms of oral tolerance
DBA/1 mice [3]; piroxicam 2.4 μg/gm a.m. + CII 10 μg p.m., eight doses, FIG. 7
  arthritic joints: significantly more arthritic joints

## type I collagen [CI]
[4]
  change in MRSS at 12 months from baseline values: significant difference
PBMC; [5]
  IL-10 production change, Bovine Native CI: -825 ± 338 pg/mL
  IL-10 production change, Bovine α1(I) CB Mix: -622 ± 480 pg/mL
  IL-10 production change, Bovine α2(I) CB Mix: -975 ± 627 pg/mL
PBMC; group mean, Genotype GG or GA
  IL-10 production change, Bovine α1(I) CB Mix: 30 ± 119 pg/mL
  IL-10 production change, Bovine α2(I) CB Mix: 22 ± 156 pg/mL
PBMC; group mean, Genotype GG or GA (BB or BA)
  IL-10 production change, Bovine Native CI: 27 ± 97 pg/mL
PBMC; [6]
  IL-10 production change, Bovine Native CI: −1726 pg/ml and +70 pg/ml and −920 pg/ml and −233 pg/ml and −1886 pg/ml and −253 pg/ml
  IL-10 production change, Bovine α1(I) CB Mix: −342 pg/ml and −19 pg/ml and −611 pg/ml and −112 pg/ml and −2942 pg/ml and +295 pg/ml
  IL-10 production change, Bovine α2(I) CB Mix: −1692 pg/ml and +28 pg/ml and −494 pg/ml and +490 pg/ml and −3736 pg/ml and −448 pg/ml
PBMC; [7]
  IL-10 production change, Bovine Native CI: −135 pg/ml and +566 pg/ml and −334 pg/ml and +192 pg/ml (2×) and +103 pg/ml and +386 pg/ml and −1564 pg/ml and +233 pg/ml and +21 pg/ml and +237 pg/ml and +150 pg/ml and −94 pg/ml and +32 pg/ml and −282 pg/ml and +232 pg/ml and −52 pg/ml and +43 pg/ml and +269 pg/ml and +341 pg/ml
  IL-10 production change, Bovine α1(I) CB Mix: −314 pg/ml and +410 pg/ml and −104 pg/ml and −391 pg/ml and +529 pg/ml and +216 pg/ml and −968 pg/ml and +347 pg/ml and −397 pg/ml and +1364 pg/ml and +108 pg/ml and −205 pg/ml and −81 pg/ml and −561 pg/ml and +582 pg/ml and −46 pg/ml and −538 pg/ml and −227 pg/ml and +663 pg/ml and +221 pg/ml
  IL-10 production change, Bovine α2(I) CB Mix: −388 pg/ml and +203 pg/ml and −86 pg/ml and −180 pg/ml and +859 pg/ml and +546 pg/ml and −1000 pg/ml and +261 pg/ml and −2021 pg/ml and +1460 pg/ml and +145 pg/ml and −113 pg/ml and +141 pg/ml (2×) and −509 pg/ml and +5 pg/ml and +381 pg/ml and +252 pg/ml and −115 pg/ml and −415 pg/ml
PBMC; [8]
  IL-10 production by PBMC cultured with native bovine CI and α2(I) CB mixture: did not upregulate IL-10 production; also recorded: deficient upregulation of IL-10 production
  IL-10 production by PBMC cultured with α1(I) CB mixture: trend toward defective production
